According to US9963452B2, “Methods, compounds, and compositions for inhibition of ROS” (AUGUSTA PHARMACEUTICALS INC., priority 2013, dated 2018):
Where two headings read alike, the source gives them in different places.

Tests used:
[1] = system: glioblastoma cell lines; test: Glioblastoma growth inhibition by Xalkori (cell-based assay, FIG. 3); settings: depending on the cell line (FIG. 3)
Method: Five tumor-derived cell lines were treated with the ROS inhibitor compounds and cell survival was monitored to determine the cancer prohibition effects of the compounds. The cell lines included HeLa, a cervical cancer cell line, and four glioblastoma cell lines U138, U87, LN18, and U118. The basic protocol for the in-vitro cell survival assay is the same for all five cell lines. In particular, the cells were seeded in 96-well plates at 2-5×10^3 cells/well (cell line dependent) in culture medium. The cells were grown for 2 days before the compounds were dissolved in DMSO and added to final concentrations of 100 uM, 10 uM, or 1 uM (DMSO final concentration 0.5%). The cell culture was then assayed one day after the addition of the compounds. The assay used Alamar blue as a redox-sensitive dye that interrogates mitochondrial fitness of cells, and these assays provided a readout for cell proliferation and viability. The raw values were normalized to an average of several vehicle control wells and are presented as percent decrease in proliferation/viability, which is converted to half maximal effective concentration (EC50) values.
FIG. 3: Potency, selectivity and growth inhibitory effects of Xalkori in in vitro kinase and cell-based assays. […] U138 and U118 have been documented to express aberrant ROS (FIG-ROS fusion). […]

[2] = target: T1, ROS (Homo sapiens, UniProt P08922); settings: reported in background; cited from earlier work
T1 sequence (P08922 28-2347): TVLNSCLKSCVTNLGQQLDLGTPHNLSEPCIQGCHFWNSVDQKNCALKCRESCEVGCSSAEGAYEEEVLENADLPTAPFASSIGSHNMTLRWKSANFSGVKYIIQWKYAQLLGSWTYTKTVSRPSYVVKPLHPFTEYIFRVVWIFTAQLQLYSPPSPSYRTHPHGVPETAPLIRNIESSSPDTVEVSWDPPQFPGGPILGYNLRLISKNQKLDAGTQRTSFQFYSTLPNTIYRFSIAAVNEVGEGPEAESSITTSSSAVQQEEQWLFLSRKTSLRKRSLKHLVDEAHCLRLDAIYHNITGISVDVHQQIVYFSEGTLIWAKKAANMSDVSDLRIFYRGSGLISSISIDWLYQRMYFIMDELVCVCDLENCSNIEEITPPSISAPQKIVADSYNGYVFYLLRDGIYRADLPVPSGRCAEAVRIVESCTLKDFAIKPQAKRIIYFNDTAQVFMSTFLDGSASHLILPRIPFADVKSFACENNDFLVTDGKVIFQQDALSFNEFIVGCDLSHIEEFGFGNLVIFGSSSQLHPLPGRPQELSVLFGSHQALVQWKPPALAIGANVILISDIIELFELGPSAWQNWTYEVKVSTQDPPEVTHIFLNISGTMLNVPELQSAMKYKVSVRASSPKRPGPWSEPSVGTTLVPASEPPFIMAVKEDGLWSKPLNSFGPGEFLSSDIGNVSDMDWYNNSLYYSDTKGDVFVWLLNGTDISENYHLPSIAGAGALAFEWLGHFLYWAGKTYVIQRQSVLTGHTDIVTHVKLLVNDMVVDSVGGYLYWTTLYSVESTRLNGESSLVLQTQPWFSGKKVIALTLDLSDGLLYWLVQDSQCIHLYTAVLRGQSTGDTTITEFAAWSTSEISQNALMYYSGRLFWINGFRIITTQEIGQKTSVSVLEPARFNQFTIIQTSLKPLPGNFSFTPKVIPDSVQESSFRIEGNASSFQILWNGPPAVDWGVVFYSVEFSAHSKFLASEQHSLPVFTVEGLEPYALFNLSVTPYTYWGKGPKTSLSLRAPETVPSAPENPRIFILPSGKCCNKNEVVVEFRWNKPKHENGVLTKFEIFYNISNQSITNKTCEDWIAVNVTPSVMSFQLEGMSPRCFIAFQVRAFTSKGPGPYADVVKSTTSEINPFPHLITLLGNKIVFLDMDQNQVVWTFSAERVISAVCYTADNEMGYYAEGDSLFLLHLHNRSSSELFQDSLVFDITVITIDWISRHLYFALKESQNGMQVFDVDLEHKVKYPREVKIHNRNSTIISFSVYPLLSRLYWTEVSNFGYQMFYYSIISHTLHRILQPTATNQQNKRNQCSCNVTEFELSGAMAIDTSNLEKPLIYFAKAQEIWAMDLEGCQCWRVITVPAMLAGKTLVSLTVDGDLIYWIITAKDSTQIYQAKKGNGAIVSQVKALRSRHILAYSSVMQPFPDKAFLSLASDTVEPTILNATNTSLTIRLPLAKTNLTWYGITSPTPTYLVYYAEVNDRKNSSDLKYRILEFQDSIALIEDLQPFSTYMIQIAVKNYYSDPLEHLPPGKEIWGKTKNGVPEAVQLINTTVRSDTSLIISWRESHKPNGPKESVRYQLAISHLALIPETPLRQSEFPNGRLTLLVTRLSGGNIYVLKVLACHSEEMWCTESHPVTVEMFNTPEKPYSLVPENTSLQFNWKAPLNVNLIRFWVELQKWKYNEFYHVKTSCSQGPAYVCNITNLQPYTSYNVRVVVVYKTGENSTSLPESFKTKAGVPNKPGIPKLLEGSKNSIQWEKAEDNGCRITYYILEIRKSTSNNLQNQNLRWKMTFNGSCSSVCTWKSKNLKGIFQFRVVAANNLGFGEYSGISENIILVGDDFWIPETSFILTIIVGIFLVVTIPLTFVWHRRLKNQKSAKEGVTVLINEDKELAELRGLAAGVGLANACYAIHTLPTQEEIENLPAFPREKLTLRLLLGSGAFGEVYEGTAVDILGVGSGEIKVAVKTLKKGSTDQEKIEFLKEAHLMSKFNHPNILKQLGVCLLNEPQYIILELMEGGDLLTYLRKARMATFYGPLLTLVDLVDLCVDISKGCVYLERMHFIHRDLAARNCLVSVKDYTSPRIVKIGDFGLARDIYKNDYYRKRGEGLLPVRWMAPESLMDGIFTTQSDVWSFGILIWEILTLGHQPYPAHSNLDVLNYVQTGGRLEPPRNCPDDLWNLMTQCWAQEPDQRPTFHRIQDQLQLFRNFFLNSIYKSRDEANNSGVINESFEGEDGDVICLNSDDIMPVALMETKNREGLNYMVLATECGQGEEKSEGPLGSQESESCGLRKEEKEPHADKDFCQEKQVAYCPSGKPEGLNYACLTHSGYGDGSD

[3] = target: T2, EGFR (Homo sapiens, UniProt P00533); test: In vitro EGFR enzymatic reaction assay (HTRF, Cisbio); type: biochemical
T2 construct: ROS or EGFR enzyme, 0.008 ng/ul
T2 sequence (P00533 25-1210, species assumed): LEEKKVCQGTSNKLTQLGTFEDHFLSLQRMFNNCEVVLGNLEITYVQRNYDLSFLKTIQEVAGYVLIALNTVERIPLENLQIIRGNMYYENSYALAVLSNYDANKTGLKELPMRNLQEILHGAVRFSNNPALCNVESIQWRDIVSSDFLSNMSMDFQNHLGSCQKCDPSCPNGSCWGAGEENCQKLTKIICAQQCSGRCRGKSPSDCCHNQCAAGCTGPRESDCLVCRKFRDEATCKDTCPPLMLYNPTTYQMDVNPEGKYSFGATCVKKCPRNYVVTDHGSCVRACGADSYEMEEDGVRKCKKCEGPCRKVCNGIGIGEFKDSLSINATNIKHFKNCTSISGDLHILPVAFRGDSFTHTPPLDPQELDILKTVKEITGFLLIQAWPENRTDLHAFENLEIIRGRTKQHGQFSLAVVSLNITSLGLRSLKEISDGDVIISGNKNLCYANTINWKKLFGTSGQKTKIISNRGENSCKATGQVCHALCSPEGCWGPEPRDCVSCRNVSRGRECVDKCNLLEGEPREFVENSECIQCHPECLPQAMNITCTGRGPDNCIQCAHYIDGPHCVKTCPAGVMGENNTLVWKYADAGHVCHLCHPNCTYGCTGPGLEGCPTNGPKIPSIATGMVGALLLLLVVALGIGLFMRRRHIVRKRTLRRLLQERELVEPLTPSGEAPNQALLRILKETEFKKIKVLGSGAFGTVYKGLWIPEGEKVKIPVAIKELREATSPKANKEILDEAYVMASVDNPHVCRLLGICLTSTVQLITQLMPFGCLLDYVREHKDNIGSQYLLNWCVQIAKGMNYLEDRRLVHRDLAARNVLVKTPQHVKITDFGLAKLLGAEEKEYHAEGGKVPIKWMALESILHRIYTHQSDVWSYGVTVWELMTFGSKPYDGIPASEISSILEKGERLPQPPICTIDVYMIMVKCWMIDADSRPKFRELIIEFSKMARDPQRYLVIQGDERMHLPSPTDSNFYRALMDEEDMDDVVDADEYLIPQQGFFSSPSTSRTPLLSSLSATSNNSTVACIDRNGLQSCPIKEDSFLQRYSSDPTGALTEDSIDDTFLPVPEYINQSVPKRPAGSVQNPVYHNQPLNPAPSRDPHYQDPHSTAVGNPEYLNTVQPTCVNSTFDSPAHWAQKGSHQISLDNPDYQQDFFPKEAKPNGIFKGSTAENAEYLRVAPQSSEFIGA

[4] = target: T1, ROS; test: In vitro ROS enzymatic reaction assay (HTRF, Cisbio); type: biochemical; set-up: ROS or EGFR enzyme, 0.008 ng/ul; settings: for inhibition at 5 µM: ROS kinase, compound at 5 uM, read-out: Kinase Inhib. 5 uM (%)
Method: The ROS enzymatic reactions were carried out with a high throughput screening platform for phosphor-detection of kinase activity. This platform based on homogeneous time resolved fluorescence (HTRF) technology from Cisbio Bioassays, Inc. (Cisbio). […] The reaction was allowed to proceed for 30 minutes at room temperature. An equal volume of detection buffer was then added to the reaction mix.

Row | SMILES | EC50 [1] [nM] | IC50 [2] [nM] | IC50 [3] [nM] | IC50 [4] [nM] | inhibition at 5 µM [4] [%]
1 | C[C@@H](Oc1cc(-c2cnn(C3CCNCC3)c2)cnc1N)c1c(Cl)ccc(F)c1Cl [Crizotinib] | 12 to 20 |  |  |  | 
2 | Cc1cc(O)cc(-c2nn(CC#N)cc2-c2ccnc(-c3cccnc3)c2)c1 [KIST301080] |  | 209 |  |  | 
3 | NC1CCN(C(=O)c2ccc(Nc3ncc(Cl)c(Nc4ccc5ncsc5c4)n3)cc2)CC1 [drawing 327] |  |  | > 5000 | 444 | 100
4 | Clc1nccc(Nc2cc(C3CC3)[nH]n2)n1 [drawing 298] |  |  | > 50000 | 2100 | 38.4
5 | O=C(c1ccc(Nc2ncc(Cl)c(Nc3ccc4ncsc4c3)n2)cc1)N1CCCCC1 [drawing 306] |  |  | > 5000 | 70 | 87.9
6 | O=C(O)c1cccc(Nc2ncc(Cl)c(Nc3ccc4ncsc4c3)n2)c1 [drawing 325] |  |  | > 5000 | 189 | 100
